The first experiment relates to HCV genotype 1b replicon in Huh 7 cells. The experiment can be described thus: HCV replicon assay (luciferase readout, 1b_Huh-Luc/Neo-ET cell line). In kind it is cell-based. Conditions: Hepatitis C virus, Huh-7, 72 h, read-out: Inhibition of HCV genotype 1b, Table 3, 72 h incubation. In short, it runs like this: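 Huh 7 cells carrying a bicistronic genotype 1b luciferase replicon treated with compound in triplicate for 72 h. Replicon level read as luciferase activity (Bright-Glo), expressed as % of control; EC50 from a sigmoidal Hill-slope fit, repeated several times.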
In general terms: Replicon systems follow genome replication, usually without infectious particles.
In the case of `COC(=O)N[C@@H](C(=O)N1CCOC[C@H]1c1ncc(-c2cc(F)c(N3CCC(c4cnc([C@@H]5CCCN5C(=O)[C@H](NC(=O)OC)c5ccccc5)[nH]4)CC3)c(F)c2)[nH]1)c1ccccc1` [compound 507], the EC50 is less than 1 nM.
As for `CC(C)(C)OC(=O)N[C@@H](C(=O)N1CCOC[C@H]1c1ncc(-c2cc(F)c(N3CCC(c4cnc([C@@H]5CCCN5C(=O)[C@H](NC(=O)OC(C)(C)C)c5ccccc5)[nH]4)CC3)c(F)c2)[nH]1)c1ccccc1` [compound 508], the EC50 is less than 1 nM.
`COC(=O)N[C@H](C(=O)N1CCOC[C@H]1c1ncc(-c2cc(F)c(N3CCC(c4cnc([C@@H]5CCCN5C(=O)[C@@H](NC(=O)OC)C(C)C)[nH]4)CC3)c(F)c2)[nH]1)C(C)C` [compound 509]: the EC50 is less than 1 nM.
As to `O=C(N[C@@H](C(=O)N1CCOC[C@H]1c1ncc(-c2cc(F)c(N3CCC(c4cnc([C@@H]5CCCN5C(=O)[C@H](NC(=O)C5CC5)c5ccccc5)[nH]4)CC3)c(F)c2)[nH]1)c1ccccc1)C1CC1` [compound 510], the EC50 is less than 1 nM.
For the compound `C[C@@H](c1ncc(C2CCN(c3c(F)cc(-c4cnc([C@@H]5CCCN5C(=O)[C@H](NC(=O)C5CC5)c5ccccc5)[nH]4)cc3F)CC2)[nH]1)N(C)C(=O)[C@H](NC(=O)C1CC1)c1ccccc1` [compound 511], the EC50 was less than 1 nM.
For `COC(=O)N[C@H](C(=O)N[C@@H](C)c1ncc(C2CCN(c3c(F)cc(-c4cnc([C@@H]5CCCN5C(=O)[C@@H](NC(=O)OC)C(C)C)[nH]4)cc3F)CC2)[nH]1)C(C)C` [compound 512], the EC50 is less than 1 nM.
On the same count and under the same terms, the figure for `C[C@H](NC(=O)[C@H](NC(=O)OC(C)(C)C)c1ccccc1)c1ncc(C2CCN(c3c(F)cc(-c4cnc([C@@H]5CCCN5C(=O)[C@H](NC(=O)OC(C)(C)C)c5ccccc5)[nH]4)cc3F)CC2)[nH]1` [compound 513] is less than 1 nM; for `C[C@H](NC(=O)[C@H](NC(=O)C1CC1)c1ccccc1)c1ncc(C2CCN(c3c(F)cc(-c4cnc([C@@H]5CCCN5C(=O)[C@H](NC(=O)C5CC5)c5ccccc5)[nH]4)cc3F)CC2)[nH]1` [compound 514] it is less than 1 nM; for `COC(=O)N[C@H](C(=O)N[C@H](c1ncc(C2CCN(c3c(F)cc(-c4cnc([C@@H]5CCCN5C(=O)[C@@H](NC(=O)OC)C(C)C)[nH]4)cc3F)CC2)[nH]1)C(C)C)C(C)C` [compound 515] it is less than 1 nM.
Regarding `COC(=O)N[C@@H](C(=O)N[C@@H](C)c1ncc(C2CCN(c3c(F)cc(-c4cnc([C@@H]5CCCN5C(=O)[C@H](NC(=O)OC)c5ccccc5)[nH]4)cc3F)CC2)[nH]1)c1ccccc1` [compound 517], the EC50 is less than 1 nM.
Same read-out and setting: the figure for `COC(=O)N[C@@H](C(=O)N[C@@H](C)c1ncc(-c2cc(F)c(N3CCC(c4cnc([C@@H]5CCCN5C(=O)[C@H](NC(=O)OC)c5ccccc5)[nH]4)CC3)c(F)c2)[nH]1)c1ccccc1` [compound 518] is less than 1 nM; for `COC(=O)N[C@H](C(=O)N[C@@H](C)c1ncc(-c2cc(F)c(N3CCC(c4cnc([C@@H]5CCCN5C(=O)[C@@H](NC(=O)OC)C(C)C)[nH]4)CC3)c(F)c2)[nH]1)C(C)C` [compound 519] it is less than 1 nM.
Still for that read-out and setting: then `C[C@H](NC(=O)[C@H](NC(=O)OC(C)(C)C)c1ccccc1)c1ncc(-c2cc(F)c(N3CCC(c4cnc([C@@H]5CCCN5C(=O)[C@H](NC(=O)OC(C)(C)C)c5ccccc5)[nH]4)CC3)c(F)c2)[nH]1` [compound 520], with less than 1 nM.

The experiment is the same for the next values; noted with them: Hepatitis C virus, Huh-7, 72 h, read-out: Inhibition of HCV genotype 1b, Table 4, 72 h incubation.
For `COC(=O)N[C@@H](C(=O)N1CCC[C@H]1c1nc2ccc(-c3ccc(-c4ccc5nc([C@@H]6CCCN6C(=O)[C@H](NC(=O)OC)c6ccccc6)[nH]c5c4)cc3)cc2[nH]1)c1ccccc1` [compound 550], the EC50 is less than 1 nM.
On to `COC(=O)N[C@H](C(=O)N1CCC[C@H]1c1nc2ccc(-c3ccc(-c4ccc5nc([C@@H]6CCCN6C(=O)[C@@H](NC(=O)OC)C(C)C)[nH]c5c4)cc3)cc2[nH]1)C(C)C` [compound 551], for which the EC50 is less than 1 nM.
With `CC(C)[C@H](NC(=O)N1CCCC1)C(=O)N1CCC[C@H]1c1nc2ccc(-c3ccc(-c4ccc5nc([C@@H]6CCCN6C(=O)[C@@H](NC(=O)N6CCCC6)C(C)C)[nH]c5c4)cc3)cc2[nH]1` [compound 552], the EC50 is greater than 1000 nM.
On to `CC(C)[C@H](NC(=O)N1CC[C@H](O)C1)C(=O)N1CCC[C@H]1c1nc2ccc(-c3ccc(-c4ccc5nc([C@@H]6CCCN6C(=O)[C@@H](NC(=O)N6CC[C@H](O)C6)C(C)C)[nH]c5c4)cc3)cc2[nH]1` [compound 553], for which the EC50 was greater than 1000 nM.
Same read-out and setting: then `CC(C)[C@H](NC(=O)OC(C)(C)C)C(=O)N1CCC[C@H]1c1nc2ccc(-c3ccc(-c4ccc5nc([C@@H]6CCCN6C(=O)[C@@H](NC(=O)OC(C)(C)C)C(C)C)[nH]c5c4)cc3)cc2[nH]1` [compound 554], with greater than 1000 nM; and `COC(=O)N[C@H](C(=O)N1CCC[C@H]1c1nc2ccc(-c3ccc(-c4ccc5nc([C@@H]6CCCN6C(=O)[C@@H](NC(=O)OC)[C@@H](C)OC)[nH]c5c4)cc3)cc2[nH]1)[C@@H](C)OC` [compound 555], with less than 1 nM.
As for `COC(=O)N[C@H](C(=O)N1CCC[C@H]1c1nc2ccc(-c3ccc(-c4ccc5nc([C@@H]6CCCN6C(=O)[C@@H](NC(=O)OC)C(C)C)[nH]c5c4)nc3)cc2[nH]1)C(C)C` [compound 556], the EC50 is less than 1 nM.
`COC(=O)N[C@H](C(=O)N1CCC[C@H]1c1nc2ccc(-c3ccc(-c4ccc5nc([C@@H]6CCCN6C(=O)[C@@H](NC(=O)OC)[C@@H](C)O)[nH]c5c4)cc3)cc2[nH]1)[C@@H](C)O` [compound 557]: the EC50 was less than 1 nM.

Still in this experiment, the particulars now being: Hepatitis C virus, Huh-7, 72 h, read-out: Inhibition of HCV genotype 1b, Table 5, 72 h incubation.
On to `CC(C)(C)OC(=O)N[C@@H](C(=O)N1CCC[C@H]1CNC(=O)C12CCC(c3ccc(-c4cnc([C@@H]5CCCN5C(=O)[C@H](NC(=O)OC(C)(C)C)c5ccccc5)[nH]4)cc3)(CC1)CC2)c1ccccc1` [compound 600], for which the EC50 lay in the range of 1 to 9.9 nM.
Still for that read-out and setting: the figure for `CC(C)(C)OC(=O)N[C@H](C(=O)N1CCC[C@H]1c1ncc(-c2ccc(C34CCC(c5cnc([C@@H]6CCCN6C(=O)[C@H](NC(=O)OC(C)(C)C)c6ccccc6)[nH]5)(CC3)CC4)cc2)[nH]1)c1ccccc1` [compound 601] is less than 1 nM; for `O=C(N[C@@H](C(=O)N1CCC[C@H]1CNC(=O)C12CCC(c3ccc(-c4cnc([C@@H]5CCCN5C(=O)[C@H](NC(=O)C5CC5)c5ccccc5)[nH]4)cc3)(CC1)CC2)c1ccccc1)C1CC1` [compound 602] it is less than 1 nM; for `O=C(N[C@@H](C(=O)N1CCC[C@H]1CNC(=O)C12CCC(c3ccc(-c4cnc([C@@H]5CCCN5C(=O)[C@H](NC(=O)N5CCOCC5)c5ccccc5)[nH]4)cc3)(CC1)CC2)c1ccccc1)N1CCOCC1` [compound 603] it is 1 to 9.9 nM.
As for `COC(=O)N[C@@H](C(=O)N1CCC[C@H]1CNC(=O)C12CCC(c3ccc(-c4cnc([C@@H]5CCCN5C(=O)[C@H](NC(=O)OC)c5ccccc5)[nH]4)cc3)(CC1)CC2)c1ccccc1` [compound 604], the EC50 was less than 1 nM.
Regarding `CC(C)(C)OC(=O)N[C@@H](C(=O)N1CCC[C@H]1c1ncc(-c2ccc(C34CCC(c5cnc([C@@H]6CCCN6C(=O)[C@H](NC(=O)OC(C)(C)C)c6ccccc6)o5)(CC3)CC4)cc2)[nH]1)c1ccccc1` [compound 605], the EC50 was 1 to 9.9 nM.
Same read-out and setting: then `COC(=O)N[C@@H](C(=O)N1CCC[C@H]1c1ncc(-c2ccc(C34CCC(c5cnc([C@@H]6CCCN6C(=O)[C@H](NC(=O)OC)c6ccccc6)[nH]5)(CC3)CC4)cc2)[nH]1)c1ccccc1` [compound 606], with less than 1 nM.

The values above are taken from US9120779B2, “Inhibitors of HCV NS5A” (PRESIDIO PHARMACEUTICALS, INC., priority 2008, dated 2015).
